In brackets after ≈: the same amount, converted by molar mass. Bridge positions count the residues as written; N and C are the ends. Square brackets hold non-standard residues; d marks the D form. Peptide text beside a SMILES is read from it. * marks the point of attachment. dOrn = NCCC[C@@H](N)C(=O)O; Nonanoyl = CCCCCCCCC(=O)*; X1 = CC[C@H](C)CCCCC(=O)*; Heptanoyl = CCCCCCC(=O)*; Octanoyl = CCCCCCCC(=O)*; Orn = NCCC[C@H](N)C(=O)O; Dab = NCC[C@H](N)C(=O)O; Dap = NC[C@H](N)C(=O)O
Columns and labels:
Type in all cases: cell-based
[1] = tested on: Escherichia coli ATCC BAA-2340 (KPC); settings: ATCC BAA-2340
Summary of the method: (§1)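 In this CLSI-based assay, serially halved compound (final 64–0.03 mg/L) was exposed to (2-4) × 10^5 CFU/mL bacteria in MH broth at 35-37°C for 16-20 h. The readout was the MIC.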

[2] = tested on: Acinetobacter baumannii ABA19-1; settings: ABA19-1
Summary of the method: as §1

[3] = tested on: Pseudomonas aeruginosa PAE19-3; settings: PAE19-3
Summary of the method: as §1

[4] = tested on: Klebsiella pneumoniae ATCC BAA-1705 (KPC); settings: ATCC BAA-1705
Summary of the method: as §1

[5] = tested on: Pseudomonas aeruginosa ATCC 27853; settings: ATCC 27853
Summary of the method: as §1

[6] = tested on: Escherichia coli ATCC BAA-2523; settings: ATCC BAA-2523
Summary of the method: as §1

[7] = tested on: Klebsiella pneumoniae KPN+19-15; settings: KPN+19-15
Summary of the method: as §1

[8] = tested on: Acinetobacter baumannii NCTC 13304 (OXA-27); settings: NCTC 13304
Summary of the method: as §1

[9] = Nephrotoxicity assay: in vitro cytotoxicity of HK-2 cells by CCK-8 assay; settings: human, HK-2 cells (human renal), 72 h incubation with drug-containing medium
Summary of the method: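 Compounds in sterile water, diluted to final 500, 250, 200, 100, 50, 25 and 12.5 µg/mL, were applied for 72 h to human HK-2 kidney cells. Absorbance at 450 nm after 3 h CCK-8 gave viability against untreated wells, and IC50 came from logarithmic regression; three replicates.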

CCCCCCC(=O)N[C@@H](CCN)C(=O)N[C@H](C(=O)N[C@H](CO)C(=O)N[C@H]1CCNC(=O)[C@H]([C@@H](C)O)NC(=O)[C@H](CCN)NC(=O)[C@H](CN)NC(=O)[C@H]([C@@H](C)O)NC(=O)[C@@H](Cc2ccccc2)NC(=O)[C@H](CCN)NC1=O)[C@@H](C)O [Compound 74, Heptanoyl-Dab-Thr-D-Ser-ring(4-10)[Dab-Dab-D-Phe-Thr-Dap-Dab-Thr]] (Heptanoyl-[Dab]T[dS][Dab][Dab][dF]T[Dap][Dab]T; lactam 4-C)
MIC [1]: 0.06 µg/mL (≈ 0.0528 µM) | MIC [2]: 0.06 µg/mL (≈ 0.0528 µM) | MIC [3]: 64 µg/mL (≈ 56.3 µM) | MIC [4]: 0.25 µg/mL (≈ 0.22 µM) | MIC [5]: >64 µg/mL | MIC [6]: 0.06 µg/mL (≈ 0.0528 µM) | MIC [7]: 0.5 µg/mL (≈ 0.44 µM) | MIC [8]: 0.03 µg/mL (≈ 0.0264 µM) | IC50 at 72 h [9]: > 500 µg/mL

CC[C@H](C)CCCCC(=O)N[C@@H](CCN)C(=O)N[C@H](C(=O)N[C@H](CO)C(=O)N[C@H]1CCNC(=O)[C@H]([C@@H](C)O)NC(=O)[C@H](CCCN)NC(=O)[C@H](CCN)NC(=O)[C@H]([C@@H](C)O)NC(=O)[C@@H](Cc2ccccc2)NC(=O)[C@H](CCN)NC1=O)[C@@H](C)O [Compound 86, (S)-6-methyloctanoyl-Dab-Thr-D-Ser-ring(4-10)[Dab-Dab-D-Phe-Thr-Dab-Orn-Thr]] (X1-[Dab]T[dS][Dab][Dab][dF]T[Dab][Orn]T; lactam 4-C)
MIC [1]: 0.03 µg/mL (≈ 0.0252 µM) | MIC [2]: 0.06 µg/mL (≈ 0.0503 µM) | MIC [3]: 64 µg/mL (≈ 53.7 µM) | MIC [4]: 0.25 µg/mL (≈ 0.21 µM) | MIC [5]: >64 µg/mL | MIC [6]: 0.03 µg/mL (≈ 0.0252 µM) | MIC [7]: 0.5 µg/mL (≈ 0.419 µM) | MIC [8]: ≤0.03 µg/mL | IC50 at 72 h [9]: > 500 µg/mL

CCCCCCCC(=O)N[C@@H](CCN)C(=O)N[C@H](C(=O)N[C@H](CO)C(=O)N[C@H]1CCNC(=O)[C@H]([C@@H](C)O)NC(=O)[C@H](CCN)NC(=O)[C@H](CN)NC(=O)[C@H]([C@@H](C)O)NC(=O)[C@@H](Cc2ccccc2)NC(=O)[C@H](CCN)NC1=O)[C@@H](C)O [Compound 73, Octanoyl-Dab-Thr-D-Ser-ring(4-10)[Dab-Dab-D-Phe-Thr-Dap-Dab-Thr]] (Octanoyl-[Dab]T[dS][Dab][Dab][dF]T[Dap][Dab]T; lactam 4-C)
MIC [1]: ≤0.03 µg/mL | MIC [2]: 0.06 µg/mL (≈ 0.0522 µM) | MIC [3]: 64 µg/mL (≈ 55.6 µM) | MIC [4]: 0.25 µg/mL (≈ 0.217 µM) | MIC [5]: >64 µg/mL | MIC [6]: ≤0.03 µg/mL | MIC [7]: 0.5 µg/mL (≈ 0.435 µM) | MIC [8]: ≤0.03 µg/mL | IC50 at 72 h [9]: > 500 µg/mL

CC[C@H](C)CCCCC(=O)N[C@@H](CCN)C(=O)N[C@H](C(=O)N[C@H](CCCN)C(=O)N[C@H]1CCNC(=O)[C@H]([C@@H](C)O)NC(=O)[C@H](CCN)NC(=O)[C@H](CCN)NC(=O)[C@H](CC(C)C)NC(=O)[C@@H](Cc2ccccc2)NC(=O)[C@H](CCN)NC1=O)[C@@H](C)O [Compound 41, (S)-6-methyloctanoyl-Dab-Thr-D-Orn-ring(4-10)[Dab-Dab-D-Phe-Leu-Dab-Dab-Thr]] (X1-[Dab]T[dOrn][Dab][Dab][dF]L[Dab][Dab]T; lactam 4-C)
MIC [1]: 0.03 µg/mL (≈ 0.0246 µM) | MIC [2]: 0.125 µg/mL (≈ 0.103 µM) | MIC [3]: 1 µg/mL (≈ 0.821 µM) | MIC [4]: 0.06 µg/mL (≈ 0.0493 µM) | MIC [5]: 0.25 µg/mL (≈ 0.205 µM) | MIC [6]: 0.03 µg/mL (≈ 0.0246 µM) | MIC [7]: 0.125 µg/mL (≈ 0.103 µM) | MIC [8]: 0.06 µg/mL (≈ 0.0493 µM) | IC50 at 72 h [9]: 259 ± 7.8 µg/mL (≈ 212 µM)

CCCCCCCCC(=O)N[C@@H](CCN)C(=O)N[C@H](C(=O)N[C@H](CO)C(=O)N[C@H]1CCNC(=O)[C@H]([C@@H](C)O)NC(=O)[C@H](CCN)NC(=O)[C@H](CCN)NC(=O)[C@H]([C@@H](C)O)NC(=O)[C@@H](Cc2ccccc2)NC(=O)[C@H](CN)NC1=O)[C@@H](C)O [Compound 65, Nonanoyl-Dab-Thr-D-Ser-ring(4-10)[Dab-Dap-D-Phe-Thr-Dab-Dab-Thr]] (Nonanoyl-[Dab]T[dS][Dab][Dap][dF]T[Dab][Dab]T; lactam 4-C)
MIC [1]: 0.25 µg/mL (≈ 0.215 µM) | MIC [2]: 0.25 µg/mL (≈ 0.215 µM) | MIC [3]: 8 µg/mL (≈ 6.87 µM) | MIC [4]: 0.25 µg/mL (≈ 0.215 µM) | MIC [5]: 64 µg/mL (≈ 55 µM) | MIC [6]: 0.25 µg/mL (≈ 0.215 µM) | MIC [7]: 0.5 µg/mL (≈ 0.429 µM) | MIC [8]: 0.25 µg/mL (≈ 0.215 µM) | IC50 at 72 h [9]: 370 ± 31.8 µg/mL (≈ 318 µM)

CCCCCCCCC(=O)N[C@@H](CN)C(=O)N[C@H](C(=O)N[C@H](CO)C(=O)N[C@H]1CCNC(=O)[C@H]([C@@H](C)O)NC(=O)[C@H](CCN)NC(=O)[C@H](CCN)NC(=O)[C@H]([C@@H](C)O)NC(=O)[C@@H](Cc2ccccc2)NC(=O)[C@H](CCN)NC1=O)[C@@H](C)O [Compound 55, Nonanoyl-Dap-Thr-D-Ser-ring(4-10)[Dab-Dab-D-Phe-Thr-Dab-Dab-Thr]] (Nonanoyl-[Dap]T[dS][Dab][Dab][dF]T[Dab][Dab]T; lactam 4-C)
MIC [1]: 0.03 µg/mL (≈ 0.0258 µM) | MIC [2]: 0.25 µg/mL (≈ 0.215 µM) | MIC [3]: 8 µg/mL (≈ 6.87 µM) | MIC [4]: 0.25 µg/mL (≈ 0.215 µM) | MIC [5]: 64 µg/mL (≈ 55 µM) | MIC [6]: 0.03 µg/mL (≈ 0.0258 µM) | MIC [7]: 0.5 µg/mL (≈ 0.429 µM) | MIC [8]: 0.25 µg/mL (≈ 0.215 µM) | IC50 at 72 h [9]: 300 ± 10.8 µg/mL (≈ 258 µM)
